According to patent US7205304B2, “Sulfonyl-Derivatives as novel inhibitors of histone deacetylase” (Janssen Pharmaceutica N.V., priority 2002, dated 2007):
Values after ≈ are worked out from the molar mass of the structure shown. Like-named read-outs stand apart in the source and are kept apart here.

Columns and labels:
[1] = test system: A2780 ovarian carcinoma cells; experiment: Antiproliferative activity on A2780 cells (MTT); type: cell-based, human; details: Homo sapiens, four days of incubation, read-out: Cellular activity pIC50 (converted)
Outline: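 A2780 ovarian carcinoma cells were seeded at 1500 cells/well and exposed to compound for four days, with DMSO ≤0.1%. Viability was measured by MTT (2 h, 37° C) and expressed as a percentage of untreated controls after blank subtraction. Initial single-point testing was at 10^−6 M, then full curves gave pIC50.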

[2] = Kinetic solubility in aqueous media (nephelometry); type: physicochemical; details: phosphate citrate buffer, pH 7.4, aqueous buffer, kinetic from dmso stock, phosphate citrate buffer pH 7.4, turbidity of three dilution steps; read-out: Solubility Score
Outline: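 DMSO stock (5 mM) diluted in three consecutive steps into phosphate citrate buffer pH 7.4, in triplicate; turbidity of each dilution read by nephelometry immediately after the last step. Compounds ranked into 3 classes: score 3 if first dilution clear, 2 if first unclear but second clear.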

[3] = test system: A 2780 ovarium carcinoma cells; experiment: A2780 mouse xenograft model; type: in vivo; details: orally 10, 20 and 40 mpk once daily, day 4 to day 32; two independent studies; maximal inhibition once at 20 mpk, once at 40 mpk
Method: Immunodeficient mice were injected subcutaneously with A 2780 ovarium carcinoma cells (10^7cells/200 μl/mouse). Subsequently they were orally treated with 10, 20 and 40 mpk of compound once daily between day 4 and day 32. The compound was dissolved in 0.9% NaCl, 20% β-cyclodextrine. On day 32 tumours were harvested and individual tumour weight of each mouse was determined. Each experiment included 10 mice.

[4] = biological target: histone deacetylase (HeLa nuclear extracts); experiment: In vitro assay for inhibition of histone deacetylase; type: biochemical; details: [3H]acetylated histone H4 peptide substrate
[5] = not given; remark: listed apart in the source

SMILES | % metabolism of the compound after 15 min of incubation (5 μM compound, microsomes 1 mg/ml, NADPH-generating system) | IC50 ([1]; 96 h) | solubility [2] | antitumoural effect (tumour weight on day 32) [3] | % metabolism of the compound after 15 min of incubation (human, 15 min, 5 μM) | Enzyme activity pIC50 [4] | IC50 ([1]; A2780, 96 h) | melting point [5]
CCCO [propanol] | 25% | – | – | – | – | – | – | –
O=C(NO)c1cnc(N2CCN(S(=O)(=O)c3ccc4ccccc4c3)CC2)nc1 [Compound 6] | – | 46.1 nM | 75.8 to 454 µM (≈ 31.3 to 188 µg/mL) | strong antitumoural effect at all doses | – | – | – | –
COc1cc(N)c(Cl)cc1C(=O)NC1CCN(CCCOc2ccc(F)cc2)CC1OC (stereo not drawn) [Cisapride] | – | – | – | – | 45% | – | – | –
CN(C)CC1CN(c2ncc(C(=O)NO)cn2)CCN1S(=O)(=O)c1ccc2ccccc2c1 (stereo not drawn) [Compound 123] | – | – | > 454 µM | – | – | 6.787 | 2580 nM | 114 °C
CC(=O)Nc1ccc(N2CCN(S(=O)(=O)c3ccc4ccccc4c3)CC2)cc1 [Compound 3] | – | – | < 75.8 µM | – | – | <5 | > 10000 nM | 200 °C
NC(=O)C1CN(c2ncc(C(=O)NO)cn2)CCN1S(=O)(=O)c1ccc2ccccc2c1 (stereo not drawn) [Compound 118] | – | – | > 454 µM | – | – | 6.741 | 5300 nM | 210 °C
O=C(NO)c1cnc(N2CCN(S(=O)(=O)c3ccc4ccccc4c3)CC2)cn1 [Compound 116] | – | – | < 75.8 µM | – | – | 7.159 | 861 nM | 249 °C
